Laboratory results published in patent US4197299A, “Anti-hypertensive derivatives of ergoline-2-thioethers and their sulphoxides” (priority 1977, dated 1980).
Where a name gives a salt, the structure may show the parent alone. Read-outs that look alike come from different tables or passages of the source.

Columns and labels:
adrenalin [1] = assay: Antiadrenalin activity in vitro (a); conditions: for adrenolytic activity (in words): as seen from the table (in vitro and in vivo); for Antiadrenalin activity in vitro EC50: in vitro (a), adrenolytic
Text: (a) J. Brugger, Helv. Physiol. Pharm. Acta 3, 117,
(c) G. Arcari & coll., Brit. J. Pharmacol. 34, 700,

adrenalin [2] = assay: Antiadrenalin activity in vivo (b)
Text: (b) F. P. Luduena et al., Arch. Int. Pharmacodyn. 122, 111,
(d) G. Arcari et Coll., Experientia 28, 819,

triptamine = assay: Antitriptaminic activity in vivo (g); conditions: sc, read-out: Antitriptaminic activity in vivo ED50
Text: (g) S. J. Corne et al., Brit. J. Pharmacol., 20, 106, 1963

BaCl2 = assay: Anti BaCl2 activity (spasmolytic) (e)
Text: (e) Magnus Pflugers Arch. ges. Physiol., 102, 123,

[3] = Pharmacological properties, classical tests on laboratory animals; conditions: in vivo
Text: The compounds claimed in the present invention show interesting pharmacological properties, evidenced by means of classical tests on laboratory animals at extremely low doses.

5HT = assay: Anti 5HT activity in vitro (f); conditions: for anti-serotininic activity (in words): as seen from the table; for Anti 5HT activity in vitro EC50: in vitro (f)
[4] = Antiasthmatic test (Goose, Immunology 16, 749, 1969); assay type: in vivo
Analgesic activity = assay type: in vivo; conditions: for analgesic activity (in words): in vivo; for ED100: sc
ptosis due to reserpine = assay: Antagonism to ptosis due to reserpine (antidepressive activity); assay type: in vivo; conditions: po
Text: Antagonism to ptosis due to reserpine (B. M.

adrenalin [5] = conditions: comparison value with reference (c) Arcari, Brit. J. Pharmacol. 34, 700; cited from earlier work
adrenalin [6] = conditions: iv, comparison value with reference (d) Arcari, Experientia 28, 819; cited from earlier work
[7] = in vivo (b), iv, read-out: Antiadrenalin activity in vivo ED50

## CSc1[nH]c2cccc3c2c1C[C@@H]1[C@@H]3C[C@@H](COC(=O)N2CCCCC2)CN1C [Compound 9, D-6-methyl-2-methylthio-8beta(piperidinocarbonyloxymethyl)ergoline]
Adrenalin [1]
  adrenolytic activity (in words): high
  Antiadrenalin activity in vitro EC50: 1.8 ng/mL
Adrenalin [2]; [7]
  ED50: 0.031 mg/kg
triptamine; in vivo (g)
  ED50: 10 mg/kg
BaCl2
  Anti BaCl2 activity EC50: 2200 ng/mL
[3]
  pharmacological properties (in words): broad spectrum of pharmacologycal properties
5HT
  anti-serotininic activity (in words): high
  Anti 5HT activity in vitro EC50: 1 ng/mL

## CSc1[nH]c2cccc3c2c1C[C@@H]1[C@@H]3C[C@@H](COC(=O)N2CCCCCC2)CN1C [Compound 10, D-6-methyl-2-methylthio-8beta(perhydroazepinylcarbonyloxymethyl)ergoline]
Adrenalin [2]; route not printed there, read-out: adrenolytic ED50
  ED50: 0.02 mg/kg
[4]; po, per os
  ED100: 1 mg/kg

## CSc1[nH]c2cccc3c2c1C[C@@H]1[C@@H]3C[C@@H](COC(=O)N2CCOCC2)CN1C [Compound 11, D-6-methyl-2-methylthio-8beta(morpholinocarbonyloxymethyl)ergoline]
Adrenalin [1]
  adrenolytic activity (in words): high
  Antiadrenalin activity in vitro EC50: 1.3 ng/mL
Adrenalin [2]; [7]
  ED50: 0.0188 mg/kg
triptamine; in vivo (g)
  ED50: 0.05 mg/kg
BaCl2
  Anti BaCl2 activity EC50: 10000 ng/mL
[3]
  pharmacological properties (in words): broad spectrum of pharmacologycal properties
5HT
  anti-serotininic activity (in words): high
  Anti 5HT activity in vitro EC50: 0.01 ng/mL

## CSc1c2c3c(cccc3n1C)[C@H]1C[C@@H](COC(=O)N(C)C)CN(C)[C@@H]1C2 [Compound 12, D-1,6-dimethyl-2-methylthio-8beta(dimethylaminocarbonyloxymethyl)ergoline maleate]
Analgesic activity
  analgesic activity (in words): potent analgesic activity
  ED100: 2.5 mg/kg
Ptosis due to reserpine
  ED100: 0.025 mg/kg

## CCN(CC)C(=O)OC[C@@H]1C[C@@H]2c3cccc4c3c(c(SC)n4C)C[C@H]2N(C)C1 [Compound 13, D-1.6-dimethyl-2-methylthio-8beta(diethylaminocarbonyloxymethyl)ergoline maleate]
Ptosis due to reserpine
  ED100: 0.5 mg/kg

## CSc1c2c3c(cccc3n1C)[C@H]1C[C@@H](COC(=O)N3CCCC3)CN(C)[C@@H]1C2 [Compound 14, D-1,6-dimethyl-2-methylthio-8beta(pyrrolidinocarbonyloxymethyl)ergoline ma leate]
Analgesic activity
  analgesic activity (in words): potent analgesic activity
  ED100: 5 mg/kg
Ptosis due to reserpine
  ED100: 0.025 mg/kg

## CSc1c2c3c(cccc3n1C)[C@H]1C[C@@H](COC(=O)N3CCCCC3)CN(C)[C@@H]1C2 [Compound 15, D-1,6-dimethyl-2-methylthio-8beta(piperidinocarbonyloxymethyl)ergolinemaleate]
Ptosis due to reserpine
  ED100: 0.01 mg/kg

## CSc1c2c3c(cccc3n1C)[C@H]1C[C@@H](COC(=O)N3CCCCCC3)CN(C)[C@@H]1C2 [Compound 16, D-1,6-dimethyl-2-methylthio-8beta(perhydroazepinylcarbonyloxymethyl)ergoline maleate]
Ptosis due to reserpine
  ED100: 0.1 mg/kg

## CSc1c2c3c(cccc3n1C)[C@H]1C[C@@H](COC(=O)N3CCOCC3)CN(C)[C@@H]1C2 [Compound 17, D-1,6-dimethyl-2-methylthio-8beta(morpholinecarbonyloxymethyl)ergoline]
Ptosis due to reserpine
  ED100: 0.5 mg/kg

## CCC(=O)O[C@](Cc1ccccc1)(c1ccccc1)[C@H](C)CN(C)C [D-propoxyphene, reference compound]
Analgesic activity
  ED100: 10 mg/kg

## CN(C)CCCN1c2ccccc2CCc2ccccc21 [imipramine, reference compound]
Ptosis due to reserpine
  ED100: 25 mg/kg

## CN1C[C@H](CNC(=O)OCc2ccccc2)C[C@@H]2c3cccc4c3c(cn4C)C[C@H]21 [metergoline, reference compound]
triptamine
  ED50: 0.062 mg/kg

## CO[C@]12C[C@@H](COC(=O)c3cncc(Br)c3)CN(C)[C@@H]1Cc1cn(C)c3cccc2c13 [nicergoline]
Adrenalin [5]
  Antiadrenalin activity in vitro EC50: 7 ng/mL
Adrenalin [6]
  Antiadrenalin activity in vivo ED50: 20 μg/kg/iv

## COc1ccc(Cc2nccc3cc(OC)c(OC)cc23)cc1OC [papaverine, reference compound]
BaCl2
  Anti BaCl2 activity EC50: 8900 ng/mL

## O=C(O)c1cc(=O)c2c(OCC(O)COc3cccc4oc(C(=O)O)cc(=O)c34)cccc2o1 [sodium chromoglycate]
[4]; iv
  ED100: 5 mg/kg
[4]; parenteral versus oral route
  antiasthmatic activity by route: active only by the parenteral route, not by the oral route
